The values that follow come from patent US20250082577A1, “POLYMER BEADLET COMPOSITIONS AND METHODS OF USE THEREOF FOR IMPROVED STABILITY, BIOAVAILABILITY & SUSTAINED RELEASE” (SpecNova LLC, priority 2023, published 2025).

The nature of data set [1]: whole-body creatine retention from 24-hour urine, double-blind randomized crossover study. Particulars: 2 x 5 g oral, 8 hours apart (total 10 grams), fifteen females and males.
Method: Participants adhered to a plant-based protein diet prior to each testing session. […] Participants were then randomly assigned to ingest capsules containing 5 g of CrM or 5 g of CrM prepared in beadlets (CrM-Bead). […] Participants repeated the experiment after a seven-day washout while ingesting the crossover supplement, i.e. the CrM-Bead group was given CrM and the CrM group was given Crm-Beads. Whole-body creatine retention was determined by subtracting CrM intake from the difference between post-supplementation urine creatine content and expressed in percent retention.
The conditions of data set [2]: cited from earlier work.

Each structure is given as a SMILES string.

With `CN(CC(=O)O)C(=N)N.O` [CrM, creatine monohydrate], the “24-hour whole-body creatine retention” value in data set [1] is 81.8%±11.4%. Also, the “time to return to baseline in the blood after oral ingestion” value in data set [2] was 4 to 5 h.
